Data on 21 compounds can be found in patent US5140009A (Tap Pharmaceuticals, Inc., priority 1990, dated 1992).

The target of this experiment is T1, LHRH receptors (Rattus norvegicus, UniProt P30969).
T1 construct: Pituitary membranes containing LHRH receptors are prepared in batches from quick-frozen rat pituitaries; tissue Hilltop Labs; host or cells: rat pituitary membranes
T1 sequence (P30969 1-327): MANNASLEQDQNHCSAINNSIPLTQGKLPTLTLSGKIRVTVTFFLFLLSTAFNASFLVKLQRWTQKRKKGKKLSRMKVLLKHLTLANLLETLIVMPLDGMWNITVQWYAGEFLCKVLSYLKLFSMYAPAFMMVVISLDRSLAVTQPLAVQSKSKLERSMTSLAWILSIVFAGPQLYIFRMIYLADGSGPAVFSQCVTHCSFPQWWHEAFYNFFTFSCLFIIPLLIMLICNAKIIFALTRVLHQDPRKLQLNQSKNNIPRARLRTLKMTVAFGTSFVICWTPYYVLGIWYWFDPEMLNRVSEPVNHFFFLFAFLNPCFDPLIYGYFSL
The experiment in a line: Receptor Binding (radioligand receptor binding assay). Particulars: table 3; rat pituitary membranes, radioiodinated [D-Leu^6 -des Gly^10 ]-LHRH ethyl amide 50 pM, 2 hours at 4° C.; read-out: Receptor Binding pkI (converted).

Numbered stars: 1 amine (or outer) side, 2 acyl side, 3 side chain; on linkers, the order of the positions; unused ones are H or OH. Square brackets hold non-standard residues; d marks the D form. Peptide text beside a SMILES is read from it. * marks the point of attachment. Propanoyl(3-indol-3-yl) = O=C(CCc1c[nH]c2ccccc12)*; Desaminohistidyl = O=C(CCc1c[nH]cn1)*; d2Nal = N[C@H](Cc1ccc2ccccc2c1)C(=O)O; dLys(iPr) = CC(C)NCCCC[C@@H](N)C(=O)O; Hydrocinnamoyl = O=C(CCc1ccccc1)*; X11 = CN(C)c1ccc(C=CC(=O)*)cc1; NMeL = CN[C@@H](CC(C)C)C(=O)O; dNMeL = CN[C@H](CC(C)C)C(=O)O; Nicotinoyl = O=C(c1cccnc1)*; Picolinoyl = O=C(c1ccccn1)*; dOrn = NCCC[C@@H](N)C(=O)O; Morpholide = C1CN(*)CCO1; PhAc = O=C(Cc1ccccc1)*; X2 = O=C(C=Cc1ccccc1)*; CO = O=C([*:1])[*:2]

On to `CCNC(=O)[C@@H]1CCCN1C(=O)[C@H](CCCNC(=N)N)NC(=O)[C@H](CC(C)C)N(C)C(=O)[C@@H](Cc1c[nH]c2ccccc12)NC(=O)[C@H](Cc1ccc(O)cc1)NC(=O)[C@H](CO)NC(=O)CCc1c[nH]c2ccccc12` [Compound 46, N-(3-(3-Indole)propionyl)Ser-Tyr-D-Trp-N-Me-Leu-Arg-Pro-NHEt] ({Propanoyl(3-indol-3-yl)}-SY[dW][NMeL]RP-NHEt), for which the Ki is 11 nM.

For the compound `CC(C)C[C@H](NC(=O)[C@@H](Cc1ccc2ccccc2c1)NC(=O)[C@H](Cc1ccc(O)cc1)NC(=O)[C@H](CO)NC(=O)CCc1c[nH]c2ccccc12)C(=O)N[C@@H](CCCNC(=N)N)C(=O)N1CCC[C@H]1C(=O)NCC(N)=O` [Compound 47, N-(3-(3-Indole)propionyl)-Ser-Tyr-D-2-Nal-Leu-Arg-Pro-Gly-NH2] ({Propanoyl(3-indol-3-yl)}-SY[d2Nal]LRPG-NH2), the Ki is 4.27 nM.

For `CCNC(=O)[C@@H]1CCCN1C(=O)[C@H](CCCNC(=N)N)NC(=O)[C@H](CC(C)C)NC(=O)[C@@H](CCCN)NC(=O)[C@H](Cc1ccc(O)cc1)NC(=O)[C@H](CO)NC(=O)CCc1c[nH]c2ccccc12` [Compound 49, (4-9) [N-(3-(3-indole)propionyl)-Ser^4 -D-Orn^6 -Pro^9 NHEt]LHRH] ({Propanoyl(3-indol-3-yl)}-SY[dOrn]LRP-NHEt), the Ki is 55 nM.

As for `CCNC(=O)[C@@H]1CCCN1C(=O)[C@H](CCCNC(=N)N)NC(=O)[C@H](CC(C)C)NC(=O)[C@@H](CCC(N)=O)NC(=O)[C@H](Cc1ccc(O)cc1)NC(=O)[C@H](CO)NC(=O)CCc1c[nH]c2ccccc12` [Compound 50, (4-9)[N-(3-(3-Indole)propionyl)-Ser^4 -D-Gln^6 -Pro^9 -NHEt]LHRH] ({Propanoyl(3-indol-3-yl)}-SY[dQ]LRP-NHEt), the Ki was 166 nM.

Regarding `CCNC(=O)CC[C@@H](NC(=O)[C@H](Cc1ccc(O)cc1)NC(=O)[C@H](CO)NC(=O)CCc1c[nH]c2ccccc12)C(=O)N[C@@H](CC(C)C)C(=O)N[C@@H](CCCNC(=N)N)C(=O)N1CCC[C@H]1C(=O)NCC` [Compound 51, N-(3-(3-Indole)propionyl)-Ser-Tyr-N-delta-ethyl-D-Gln-Leu-Arg-ProNHEt] ({Propanoyl(3-indol-3-yl)}-SY[dE](NHEt)LRP-NHEt), the Ki is 132 nM.

Consider `CCNC(=O)[C@@H]1CCCN1C(=O)[C@H](CCCNC(=N)N)NC(=O)[C@H](CC(C)C)NC(=O)[C@@H](CCCCNC(=O)c1cccnc1)NC(=O)[C@H](Cc1ccc(O)cc1)NC(=O)[C@H](CO)NC(=O)CCc1c[nH]c2ccccc12` [Compound 52] ({Propanoyl(3-indol-3-yl)}-SY[dK](Nicotinoyl)LRP-NHEt), for which the Ki is 21.9 nM.

For `CCNC(=O)[C@@H]1CCCN1C(=O)[C@H](CCCNC(=N)N)NC(=O)[C@H](CC(C)C)NC(=O)[C@@H](CCCCNC(=O)c1ccccn1)NC(=O)[C@H](Cc1ccc(O)cc1)NC(=O)[C@H](CO)NC(=O)CCc1c[nH]c2ccccc12` [Compound 53] ({Propanoyl(3-indol-3-yl)}-SY[dK](Picolinoyl)LRP-NHEt), the Ki was 27.5 nM.

Take `CCNC(=O)[C@@H]1CCCN1C(=O)[C@H](CCCNC(=N)N)NC(=O)[C@H](CC(C)C)NC(=O)[C@@H](CCCCNC(C)C)NC(=O)[C@H](Cc1ccc(O)cc1)NC(=O)[C@H](CO)NC(=O)CCc1c[nH]c2ccccc12` [Compound 54, N-(3-(3-Indole)propionyl)-Ser-Tyr-D-Lys-(N-epsilon-isp)-Leu-Arg-Pro-NHEt] ({Propanoyl(3-indol-3-yl)}-SY[dLys(iPr)]LRP-NHEt): the Ki was 20.4 nM.

For the compound `CCNC(=O)[C@@H]1CCCN1C(=O)[C@H](CCCNC(=N)N)NC(=O)[C@H](CC(C)C)NC(=O)[C@@H](CCCCN)NC(=O)[C@H](Cc1ccc(O)cc1)NC(=O)[C@H](CO)NC(=O)CCc1c[nH]c2ccccc12` [Compound 55, N-(3-(3-Indole)propionyl)-Ser-Tyr-D-Lys-Leu-Arg-Pro-NHEt] ({Propanoyl(3-indol-3-yl)}-SY[dK]LRP-NHEt), the Ki is 15.1 nM.

Turning to `CC(C)C[C@H](NC(=O)[C@@H](Cc1ccc2ccccc2c1)NC(=O)[C@H](Cc1ccc(O)cc1)NC(=O)[C@H](CO)NC(=O)CCc1c[nH]c2ccccc12)C(=O)N[C@@H](CCCNC(=N)N)C(=O)N1CCC[C@H]1C(=O)N[C@H](C)C(N)=O` [Compound 56, N-(3-(3-Indole)propionyl)-Ser-Tyr-D-2-Nal-Leu-Arg-Pro-D-AlaNH2] ({Propanoyl(3-indol-3-yl)}-SY[d2Nal]LRP[dA]-NH2), the Ki was 0.646 nM.

`CCNC(=O)[C@@H]1CCCN1C(=O)[C@H](CCCNC(=N)N)NC(=O)[C@H](CC(C)C)NC(=O)[C@@H](CC(C)C)N(C)C(=O)[C@H](Cc1ccc(O)cc1)NC(=O)[C@H](CO)NC(=O)CCc1c[nH]c2ccccc12` [Compound 58, N-(3-(3-Indole)propionyl)-Ser-Tyr-D-N-Me-Leu-Leu-Arg-Pro-NHEt] ({Propanoyl(3-indol-3-yl)}-SY[dNMeL]LRP-NHEt): the Ki is 22.4 nM.

Take `CCNC(=O)[C@@H]1CCCN1C(=O)[C@H](CCCNC(=N)N)NC(=O)[C@H](CC(C)C)NC(=O)[C@@H](Cc1c[nH]c2ccccc12)NC(=O)[C@H](Cc1ccc(O)cc1)NC(=O)[C@H](CO)NC(=O)[C@H](Cc1c[nH]c2ccccc12)NC(=O)[C@H](Cc1ccccc1)NC(=O)N1CCOCC1` [Compound 59, N-alpha-Morpholinocarbonyl-Phe-Trp-Ser-Tyr-D-Trp-Leu-Arg-ProNHET] ({Morpholide-CO}-FWSY[dW]LRP-NHEt): the Ki was 0.00832 nM.

Turning to `CCNC(=O)[C@@H]1CCCN1C(=O)[C@H](CCCNC(=N)N)NC(=O)[C@H](CC(C)C)NC(=O)[C@@H](CCCNC(=N)N)NC(=O)[C@H](Cc1ccc(O)cc1)NC(=O)[C@H](CO)NC(=O)[C@H](Cc1c[nH]c2ccccc12)NC(=O)[C@H](Cc1ccccc1)NC(=O)N1CCOCC1` [Compound 60, N-(alpha)-Morpholinocarbonyl-Phe-Trp-Ser-Tyr-D-Arg-Leu-Arg-ProNHEt] ({Morpholide-CO}-FWSY[dR]LRP-NHEt), the Ki is 5.25 nM.

Turning to `CCNC(=O)[C@@H]1CCCN1C(=O)[C@H](CCCNC(=N)N)NC(=O)[C@H](CC(C)C)NC(=O)[C@@H](Cc1c[nH]c2ccccc12)NC(=O)[C@H](Cc1ccc(O)cc1)NC(=O)[C@H](CO)NC(=O)[C@H](Cc1c[nH]c2ccccc12)NC(=O)CCc1c[nH]cn1` [Compound 61, N-[3-(4-Imidazolyl)propionyl]-Trp-Ser-Tyr-D-Trp-Leu-Arg-ProNHEt] (Desaminohistidyl-WSY[dW]LRP-NHEt), the Ki is 0.427 nM.

In the case of `CCNC(=O)[C@@H]1CCCN1C(=O)[C@H](CCCNC(=N)N)NC(=O)[C@H](CC(C)C)NC(=O)[C@@H](Cc1c[nH]c2ccccc12)NC(=O)[C@H](Cc1ccc(O)cc1)NC(=O)[C@H](CO)NC(=O)[C@H](Cc1c[nH]c2ccccc12)NC(=O)C=Cc1ccccc1` [Compound 62, (3-9)[N-Cinnamoyl-Trp^3 -D-Trp^6 -Pro^9 -NHEt]LHRH] (X2-WSY[dW]LRP-NHEt), the Ki was 10.5 nM.

On to `CCNC(=O)[C@@H]1CCCN1C(=O)[C@H](CCCNC(=N)N)NC(=O)[C@H](CC(C)C)NC(=O)[C@@H](CC(C)C)NC(=O)[C@H](Cc1ccc(O)cc1)NC(=O)[C@H](CO)NC(=O)[C@H](Cc1c[nH]c2ccccc12)NC(=O)C=Cc1ccccc1` [Compound 63, (3-9)[N-Cinnamoyl-Trp^3 -D-Leu^6 -Pro^9 -NHEt]LHRH] (X2-WSY[dL]LRP-NHEt), for which the Ki is 50.1 nM.

In the case of `CCNC(=O)[C@@H]1CCCN1C(=O)[C@H](CCCNC(=N)N)NC(=O)[C@H](CC(C)C)NC(=O)[C@@H](CC(C)C)NC(=O)[C@H](Cc1ccc(O)cc1)NC(=O)[C@H](CO)NC(=O)[C@H](Cc1c[nH]c2ccccc12)NC(=O)C=Cc1ccc(N(C)C)cc1` [Compound 64, (3-9)[N-((para-Dimethylamino)cinnamoyl)-Trp^3 -D-Leu^6 -Pro^9 -NHEt]LHRH] (X11-WSY[dL]LRP-NHEt), the Ki was 437 nM.

Turning to `CCNC(=O)[C@@H]1CCCN1C(=O)[C@H](CCCNC(=N)N)NC(=O)[C@H](CC(C)C)NC(=O)[C@@H](Cc1c[nH]c2ccccc12)NC(=O)[C@H](Cc1ccc(O)cc1)NC(=O)[C@H](CO)NC(=O)[C@H](Cc1c[nH]c2ccccc12)NC(=O)CCc1ccccc1` [Compound 65, (3-9)[N-(3-Phenylpropionyl)-Trp^3 -D-Trp^6 -Pro^9 -NHEt]LHRH] (Hydrocinnamoyl-WSY[dW]LRP-NHEt), the Ki was 0.269 nM.

For the compound `CCNC(=O)[C@@H]1CCCN1C(=O)[C@H](CCCNC(=N)N)NC(=O)[C@H](CC(C)C)NC(=O)[C@@H](CC(C)C)NC(=O)[C@H](Cc1ccc(O)cc1)NC(=O)[C@H](CO)NC(=O)[C@H](Cc1c[nH]c2ccccc12)NC(=O)CCc1ccccc1` [Compound 66, (3-9)[N-(3-Phenylpropionyl)-Trp^3 -D-Leu^6 -Pro^9 -NHEt]LHRH] (Hydrocinnamoyl-WSY[dL]LRP-NHEt), the Ki is 1.78 nM.

With `CCNC(=O)[C@@H]1CCCN1C(=O)[C@H](CCCNC(=N)N)NC(=O)[C@H](CC(C)C)NC(=O)[C@@H](CC(C)C)NC(=O)[C@H](Cc1ccc(O)cc1)NC(=O)[C@H](CO)NC(=O)[C@H](Cc1c[nH]c2ccccc12)NC(=O)Cc1ccccc1` [Compound 68, (3-9)[N-(Phenylacetyl)-Trp^3 -D-Leu^6 -Pro^9 -NHEt]LHRH] (PhAc-WSY[dL]LRP-NHEt), the Ki was 21.9 nM.

As to `CCNC(=O)[C@@H]1CCCN1C(=O)[C@H](CCCNC(=N)N)NC(=O)[C@H](CC(C)C)NC(=O)[C@@H](Cc1c[nH]c2ccccc12)NC(=O)[C@H](Cc1ccc(O)cc1)NC(=O)[C@H](CO)NC(=O)[C@H](Cc1c[nH]c2ccccc12)NC(=O)[C@H](Cc1c[nH]cn1)NC(=O)CCc1cnc[nH]1` [Compound 69, N-(3-(5-Imidazolyl)propionyl)-His-Trp-Ser-Tyr-D-Trp-Leu-Arg-Pro-NHEt] (Desaminohistidyl-HWSY[dW]LRP-NHEt), the Ki is 1.05 nM.
